Experimental data from patent publication US20260022142A1, “MACROCYCLIC IMMUNOMODULATORS” (Bristol-Myers Squibb Company, priority 2022, published 2026).
Bridge positions count the residues as written; N and C are the ends. Square brackets hold non-standard residues; d marks the D form. Peptide text beside a SMILES is read from it. * marks the point of attachment. Bip = N[C@@H](Cc1ccc(-c2ccccc2)cc1)C(=O)O; Phe(3-Me) = Cc1cccc(C[C@H](N)C(=O)O)c1; Cha = N[C@@H](CC1CCCCC1)C(=O)O; Cit = NC(=O)NCCC[C@H](N)C(=O)O; Pen = CC(C)(S)[C@H](N)C(=O)O; Dap(Me) = CNC[C@H](N)C(=O)O; hCys = N[C@@H](CCS)C(=O)O; Carboxymethyl = O=C(O)C*; NMeA = CN[C@@H](C)C(=O)O; Orn = NCCC[C@H](N)C(=O)O; Aun = NCCCCCCCCCCC(=O)O; Dab = NCC[C@H](N)C(=O)O; Dap = NC[C@H](N)C(=O)O; Aib = CC(C)(N)C(=O)O

Molecular target: T1, PD-1/PD-L1 interaction (PE-labeled human PD-L1-Ig binding to Jurkat cell line over-expressing human PD-1) (Homo sapiens, UniProt Q15116)
T1 construct: expressed in transfected cells; host or cells: Jurkat
Assay: Jurkat-PD-1 Cell Binding High-Content Screening Assay (CBA)
Type: cell-based
Settings: Jurkat cell line over-expressing human PD-1; PE-labeled PD-L1-Ig 20 nM final; read-out: Jurkat hPD1-PDL1 IC50
Procedure, shortened: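 Binding of fluorescent PD-L1-Ig (phycoerythrin on Ig tag, 20 nM final, 1 h) measured by high-content imaging of fixed, Hoechst-counterstained Jurkat-hPD-1 cells. Compound added 2 h at 37° C beforehand, in DMEM with 10% fetal calf serum.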

T1 sequence (Q15116 25-288): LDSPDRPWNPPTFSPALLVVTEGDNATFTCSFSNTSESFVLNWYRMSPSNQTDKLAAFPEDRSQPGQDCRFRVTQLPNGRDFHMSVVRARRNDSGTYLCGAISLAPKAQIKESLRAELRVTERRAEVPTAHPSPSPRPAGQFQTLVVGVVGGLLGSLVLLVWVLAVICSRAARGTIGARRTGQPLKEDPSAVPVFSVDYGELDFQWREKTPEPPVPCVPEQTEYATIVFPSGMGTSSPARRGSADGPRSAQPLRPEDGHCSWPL

SMILES	IC50
CC(C)C[C@H]1NC(=O)[C@H](CCCN)NC(=O)[C@H](C(C)C)NC(=O)[C@H](Cc2ccc(-c3ccccc3)cc2)NC(=O)[C@H](C(C)C)NC(=O)[C@H](Cc2c[nH]c3ccccc23)NC(=O)[C@H](CC(=O)O)NC(=O)[C@H](Cc2ccc(OCC(=O)O)cc2)NC(=O)[C@H](CN)NC(=O)CSC[C@@H](C(=O)N[C@@H](CCCN)C(=O)NCCCCCCCCCCC(=O)O)NC(=O)[C@H](CCC(=O)O)NC(=O)[C@H](C(C)C)NC(=O)[C@H](CC2CCCCC2)NC(=O)[C@H](Cc2c[nH]cn2)NC1=O [Compound 2776] ({CH2CO}-[Dap]Y(Carboxymethyl)DWV[Bip]V[Orn][dL]H[Cha]VEC[Orn][Aun]-OH; thioether N-14)	54.1 nM
CC(C)C[C@H]1NC(=O)[C@H](CCCN)NC(=O)[C@H](C(C)C)NC(=O)[C@H](Cc2ccc(-c3ccccc3)cc2)NC(=O)[C@H](C(C)C)NC(=O)[C@H](Cc2c[nH]c3ccccc23)NC(=O)[C@H](CC(=O)O)NC(=O)[C@H](Cc2ccc(OCC(=O)O)cc2)NC(=O)[C@H](Cc2c[nH]cn2)NC(=O)CSC[C@@H](C(=O)N[C@H](C)C(=O)N[C@@H](CCC(=O)O)C(=O)NCCCCCCCCCCC(=O)O)NC(=O)[C@H]([C@@H](C)O)NC(=O)[C@H](C(C)C)NC(=O)[C@H](CC2CCCCC2)NC(=O)[C@H](CCN)NC1=O [Compound 2785] ({CH2CO}-HY(Carboxymethyl)DWV[Bip]V[Orn][dL][Dab][Cha]VTC[dA]E[Aun]-OH; thioether N-14)	16.1 nM
CC(C)C[C@H]1NC(=O)[C@H](CCCN)NC(=O)[C@H](C(C)C)NC(=O)[C@H](Cc2ccc(-c3ccccc3)cc2)NC(=O)[C@H](C(C)C)NC(=O)[C@H](Cc2c[nH]c3ccccc23)NC(=O)[C@H](CC(=O)O)NC(=O)[C@H](Cc2ccc(OCC(=O)O)cc2)NC(=O)[C@H](CN)NC(=O)CSC[C@@H](C(=O)N[C@@H](CCN)C(=O)NCCCCCCCCCCC(=O)O)NC(=O)[C@H](CCC(=O)O)NC(=O)[C@H](C(C)C)NC(=O)[C@H](CC2CCCCC2)NC(=O)[C@H](Cc2c[nH]cn2)NC1=O [Compound 2788] ({CH2CO}-[Dap]Y(Carboxymethyl)DWV[Bip]V[Orn][dL]H[Cha]VEC[Dab][Aun]-OH; thioether N-14)	22.3 nM
Cc1cccc(C[C@@H]2NC(=O)[C@H](CC(=O)O)NC(=O)[C@H](Cc3ccc(O)cc3)NC(=O)[C@H](CC(N)=O)NC(=O)CSC[C@@H](C(=O)N[C@@H](CCN)C(=O)NCCCCCCCCCCC(=O)O)NC(=O)[C@H](CCC(N)=O)NC(=O)[C@H](C(C)C)NC(=O)[C@H](CC(C)C)NC(=O)[C@H](CCN)NC(=O)[C@@H](CC(C)C)NC(=O)[C@H](CCCN)NC(=O)[C@H](CCCNC(N)=O)NC(=O)[C@H](Cc3ccc(-c4ccccc4)cc3)NC(=O)[C@H](C(C)C)NC2=O)c1 [Compound 2789] ({CH2CO}-NYD[Phe(3-Me)]V[Bip][Cit][Orn][dL][Dab]LVQC[Dab][Aun]-OH; thioether N-14)	23.8 nM
Cc1cccc(C[C@@H]2NC(=O)[C@H](CC(=O)O)NC(=O)[C@H](Cc3ccc(O)cc3)NC(=O)[C@H](CC(N)=O)NC(=O)CSC[C@@H](C(=O)N[C@@H](CCCN)C(=O)NCCCCCCCCCCC(=O)O)NC(=O)[C@H](CCC(N)=O)NC(=O)[C@H](C(C)C)NC(=O)[C@H](CC(C)C)NC(=O)[C@H](CCN)NC(=O)[C@@H](CC(C)C)NC(=O)[C@H](CCCN)NC(=O)[C@H](CCCNC(N)=O)NC(=O)[C@H](Cc3ccc(-c4ccccc4)cc3)NC(=O)[C@H](C(C)C)NC2=O)c1 [Compound 2790] ({CH2CO}-NYD[Phe(3-Me)]V[Bip][Cit][Orn][dL][Dab]LVQC[Orn][Aun]-OH; thioether N-14)	71.1 nM

The remaining lines, values ahead:

IC50	SMILES
20.1 nM	Cc1cccc(C[C@@H]2NC(=O)[C@H](CC(=O)O)NC(=O)[C@H](Cc3ccc(OCC(=O)O)cc3)NC(=O)[C@H](CCCNC(=N)N)NC(=O)CSC[C@@H](C(=O)N[C@@H](CCN)C(=O)NCCCCCCCCCCC(=O)O)NC(=O)[C@H]([C@@H](C)O)NC(=O)[C@H](C(C)C)NC(=O)[C@H](CC3CCCCC3)NC(=O)[C@H](CCN)NC(=O)[C@@H](CC(C)C)NC(=O)[C@H](CCN)NC(=O)[C@H](CCCNC(N)=O)NC(=O)[C@H](Cc3ccc(-c4ccccc4)cc3)NC(=O)[C@H](C(C)C)NC2=O)c1 [Compound 2777] ({CH2CO}-RY(Carboxymethyl)D[Phe(3-Me)]V[Bip][Cit][Dab][dL][Dab][Cha]VTC[Dab][Aun]-OH; thioether N-14)
8.9 nM	Cc1cccc(C[C@@H]2NC(=O)[C@H](CC(=O)O)NC(=O)[C@H](Cc3ccc(OCC(=O)O)cc3)NC(=O)[C@H](CCCNC(=N)N)NC(=O)CSC[C@@H](C(=O)N[C@@H](CCN)C(=O)NCCCCCCCCCCC(=O)O)NC(=O)[C@H](CCC(=O)O)NC(=O)[C@H](C(C)C)NC(=O)[C@H](CC3CCCCC3)NC(=O)[C@H](CCN)NC(=O)[C@@H](CC(C)C)NC(=O)[C@H](CCN)NC(=O)[C@H](CCCNC(N)=O)NC(=O)[C@H](Cc3ccc(-c4ccccc4)cc3)NC(=O)[C@H](C(C)C)NC2=O)c1 [Compound 2778] ({CH2CO}-RY(Carboxymethyl)D[Phe(3-Me)]V[Bip][Cit][Dab][dL][Dab][Cha]VEC[Dab][Aun]-OH; thioether N-14)
6.7 nM	Cc1cccc(C[C@@H]2NC(=O)[C@H](CC(=O)O)NC(=O)[C@H](Cc3ccc(OCC(=O)O)cc3)NC(=O)[C@H](CCCNC(=N)N)NC(=O)CSC[C@@H](C(=O)N[C@@H](CCCN)C(=O)NCCCCCCCCCCC(=O)O)NC(=O)[C@H](CCC(=O)O)NC(=O)[C@H](C(C)C)NC(=O)[C@H](CC3CCCCC3)NC(=O)[C@H](CCN)NC(=O)[C@@H](CC(C)C)NC(=O)[C@H](CCN)NC(=O)[C@H](CCCNC(N)=O)NC(=O)[C@H](Cc3ccc(-c4ccccc4)cc3)NC(=O)[C@H](C(C)C)NC2=O)c1 [Compound 2780] ({CH2CO}-RY(Carboxymethyl)D[Phe(3-Me)]V[Bip][Cit][Dab][dL][Dab][Cha]VEC[Orn][Aun]-OH; thioether N-14)
74.3 nM	Cc1cccc(C[C@@H]2NC(=O)[C@H](CC(=O)O)NC(=O)[C@H](Cc3ccc(OCC(=O)O)cc3)NC(=O)[C@H](CN)NC(=O)CSCC[C@@H](C(=O)N[C@@H](C)C(=O)N[C@@H](CCC(=O)O)C(=O)NCCCCCCCCCCC(=O)O)NC(=O)[C@H]([C@@H](C)O)NC(=O)[C@H](C(C)C)NC(=O)[C@H](CC3CCCCC3)NC(=O)[C@H](CCN)NC(=O)[C@@H](CC(C)C)NC(=O)[C@H](CCCN)NC(=O)[C@H](CCCNC(N)=O)NC(=O)[C@H](Cc3ccc(-c4ccccc4)cc3)NC(=O)[C@H](C(C)C)NC2=O)c1 [Compound 2781] ({CH2CO}-[Dap]Y(Carboxymethyl)D[Phe(3-Me)]V[Bip][Cit][Orn][dL][Dab][Cha]VT[hCys]AE[Aun]-OH; thioether N-14)
336 nM	Cc1cccc(C[C@@H]2NC(=O)[C@H](CC(=O)O)NC(=O)[C@H](Cc3ccc(OCC(=O)O)cc3)NC(=O)[C@H](CN)NC(=O)CSC(C)(C)[C@@H](C(=O)N[C@@H](C)C(=O)N[C@@H](CCC(=O)O)C(=O)NCCCCCCCCCCC(=O)O)NC(=O)[C@H]([C@@H](C)O)NC(=O)[C@H](C(C)C)NC(=O)[C@H](CC3CCCCC3)NC(=O)[C@H](CCN)NC(=O)[C@@H](CC(C)C)NC(=O)[C@H](CCCN)NC(=O)[C@H](CCCNC(N)=O)NC(=O)[C@H](Cc3ccc(-c4ccccc4)cc3)NC(=O)[C@H](C(C)C)NC2=O)c1 [Compound 2782] ({CH2CO}-[Dap]Y(Carboxymethyl)D[Phe(3-Me)]V[Bip][Cit][Orn][dL][Dab][Cha]VT[Pen]AE[Aun]-OH; thioether N-14)
368 nM	Cc1cccc(C[C@@H]2NC(=O)[C@H](CC(=O)O)NC(=O)[C@H](Cc3ccc(OCC(=O)O)cc3)NC(=O)[C@H](CN)NC(=O)CSC[C@@H](C(=O)N(C)[C@@H](C)C(=O)N[C@@H](CCC(=O)O)C(=O)NCCCCCCCCCCC(=O)O)NC(=O)[C@H]([C@@H](C)O)NC(=O)[C@H](C(C)C)NC(=O)[C@H](CC3CCCCC3)NC(=O)[C@H](CCN)NC(=O)[C@@H](CC(C)C)NC(=O)[C@H](CCCN)NC(=O)[C@H](CCCNC(N)=O)NC(=O)[C@H](Cc3ccc(-c4ccccc4)cc3)NC(=O)[C@H](C(C)C)NC2=O)c1 [Compound 2783] ({CH2CO}-[Dap]Y(Carboxymethyl)D[Phe(3-Me)]V[Bip][Cit][Orn][dL][Dab][Cha]VTC[NMeA]E[Aun]-OH; thioether N-14)
21.8 nM	Cc1cccc(C[C@@H]2NC(=O)[C@H](CC(=O)O)NC(=O)[C@H](Cc3ccc(OCC(=O)O)cc3)NC(=O)[C@H](CN)NC(=O)CSC[C@@H](C(=O)NC(C)(C)C(=O)N[C@@H](CCC(=O)O)C(=O)NCCCCCCCCCCC(=O)O)NC(=O)[C@H]([C@@H](C)O)NC(=O)[C@H](C(C)C)NC(=O)[C@H](CC3CCCCC3)NC(=O)[C@H](CCN)NC(=O)[C@@H](CC(C)C)NC(=O)[C@H](CCCN)NC(=O)[C@H](CCCNC(N)=O)NC(=O)[C@H](Cc3ccc(-c4ccccc4)cc3)NC(=O)[C@H](C(C)C)NC2=O)c1 [Compound 2784] ({CH2CO}-[Dap]Y(Carboxymethyl)D[Phe(3-Me)]V[Bip][Cit][Orn][dL][Dab][Cha]VTC[Aib]E[Aun]-OH; thioether N-14)
28.3 nM	CNC[C@H](NC(=O)[C@@H]1CSCC(=O)N[C@@H](CN)C(=O)N[C@@H](Cc2ccc(OCC(=O)O)cc2)C(=O)N[C@@H](CC(=O)O)C(=O)N[C@@H](Cc2cccc(C)c2)C(=O)N[C@@H](C(C)C)C(=O)N[C@@H](Cc2ccc(-c3ccccc3)cc2)C(=O)N[C@@H](CCCNC(N)=O)C(=O)N[C@@H](CCCN)C(=O)N[C@H](CC(C)C)C(=O)N[C@@H](CCN)C(=O)N[C@@H](CC2CCCCC2)C(=O)N[C@@H](C(C)C)C(=O)N[C@@H]([C@@H](C)O)C(=O)N1)C(=O)NCCCCCCCCCCC(=O)O [Compound 2787] ({CH2CO}-[Dap]Y(Carboxymethyl)D[Phe(3-Me)]V[Bip][Cit][Orn][dL][Dab][Cha]VTC[Dap(Me)][Aun]-OH; thioether N-14)
